The conditions of data set [1]: phase II clinical trial, endometriosis; trial was terminated; cited from earlier work.
Data set [2] concerns the target T1, Recombinant human aldo-keto reductase family 1 member C2 (AKR1C2) protein (Homo sapiens, UniProt P52895).
T1 construct: made in house; host or cells: Sf-9 insect cells (baculovirus)
T1 sequence (P52895 1-323): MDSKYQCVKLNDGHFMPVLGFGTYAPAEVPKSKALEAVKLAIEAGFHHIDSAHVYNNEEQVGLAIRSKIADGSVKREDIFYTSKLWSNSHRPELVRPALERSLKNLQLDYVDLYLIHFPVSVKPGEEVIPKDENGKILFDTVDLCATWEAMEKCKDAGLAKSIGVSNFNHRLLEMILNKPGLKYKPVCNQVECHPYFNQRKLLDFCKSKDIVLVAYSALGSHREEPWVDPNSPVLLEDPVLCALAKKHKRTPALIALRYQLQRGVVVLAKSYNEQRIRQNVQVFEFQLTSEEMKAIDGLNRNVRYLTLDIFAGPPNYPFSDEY
Put plainly: Inhibition of the aldo-keto reductase family 1 member C2, 3H-dihydrotestosterone conversion. The settings on record: inhibitor at 10 μM. It is filed as biochemical. In outline: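 Single-point screen at 10 μM inhibitor, 1% DMSO: [3H]DHT (6.25 nM) reduction to 3α-diol by baculovirus-made AKR1C2 (13.6 nM), pH 7.4 phosphate buffer, 1 mM NADPH, 37 °C for 45 min. Radio-UPLC quantified product versus substrate to give percent inhibition.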

Data set [3] deals with T2, Recombinant human AKR1C3 (17β-HSD5) protein (Homo sapiens, UniProt P42330).
T2 construct: made in house; host or cells: E. coli
T2 sequence (P42330 1-323): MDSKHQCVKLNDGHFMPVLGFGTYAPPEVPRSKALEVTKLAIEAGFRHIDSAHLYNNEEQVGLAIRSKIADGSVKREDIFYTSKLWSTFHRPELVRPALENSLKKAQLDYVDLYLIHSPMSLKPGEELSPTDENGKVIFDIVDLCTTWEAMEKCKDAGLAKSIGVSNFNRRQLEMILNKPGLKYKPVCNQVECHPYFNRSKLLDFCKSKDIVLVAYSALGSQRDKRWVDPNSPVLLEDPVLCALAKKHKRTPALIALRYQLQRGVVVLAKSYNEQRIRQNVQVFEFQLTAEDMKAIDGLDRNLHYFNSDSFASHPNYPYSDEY
Put plainly: Inhibition of AKR1C3 (17β-hydroxysteroid dehydrogenase type 5) enzyme, fluorescence assay. The format is biochemical. The following applies: inhibitor at 500 nM. The method in brief:
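Percent inhibition at 500 nM compound, derived from substrate conversion; product alcohol measured by fluorescence (ex 420, em 510 nm) against a 1 μM–10 nM standard curve. Reaction: 27 nM recombinant AKR1C3, 1 μM ketone substrate, 1 mM NADPH, phosphate/EDTA buffer pH 7.4, 1% DMSO, RT for 60–120 min.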

In data set [4] the target is T3, 17β-Hydroxysteroid Dehydrogenase Type 2 Enzyme (17β-HSD2) (Homo sapiens, UniProt P37059).
T3 construct: made in house; host or cells: Sf-9 insect cells (baculovirus)
T3 sequence (P37059 1-387): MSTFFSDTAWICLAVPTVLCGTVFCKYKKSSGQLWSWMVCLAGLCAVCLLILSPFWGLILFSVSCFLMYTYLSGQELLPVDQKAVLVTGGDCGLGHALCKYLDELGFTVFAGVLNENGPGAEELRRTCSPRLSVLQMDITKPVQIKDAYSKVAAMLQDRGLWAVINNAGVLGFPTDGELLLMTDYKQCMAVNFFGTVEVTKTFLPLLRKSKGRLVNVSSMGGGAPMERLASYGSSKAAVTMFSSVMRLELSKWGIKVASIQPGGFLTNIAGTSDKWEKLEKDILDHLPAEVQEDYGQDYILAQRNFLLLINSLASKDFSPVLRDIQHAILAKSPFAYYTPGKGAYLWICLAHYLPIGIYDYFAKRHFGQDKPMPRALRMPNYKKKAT
Kind of data set: Inhibition of the 17β-hydroxysteroid dehydrogenase type 2 enzyme, 3H-testosterone conversion. The format is biochemical. The settings on record: inhibitor at 10 μM. The method in brief: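 Single-point screen at 10 μM inhibitor, 1% DMSO: Sf-9-expressed human enzyme (105 nM), NAD 1 mM, ³H-labelled testosterone 56.25 nM, pH 8.5 phosphate/EDTA buffer, 30 min, room temperature. After TCA quench, substrate and product radioactivity quantified by UPLC with scintillation detection; inhibition percent from conversion.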

By inhibition is commonly meant the change of the read-out against control, counted positive when it falls.

In the case of `CN(CCC(=O)O)C(=O)c1ccc2c(c1)CC[C@@H]1[C@@H]2CC[C@]2(C)C(c3cncc(F)c3)=CC[C@@H]12` [BAY-1128688], the “bilirubin levels of patients” value in data set [1] is “raised bilirubin levels”.

With `N#CC(=C1CCN(C(=O)N2CCn3nncc3C2)CC1)c1ccc(OC(F)(F)F)cc1` [Compound 162, 2-(1-(4,5,6,7-tetrahydro-[1,2,3]triazolo[1,5-a]pyrazine-5-carbonyl)piperidin-4-ylidene)-2-(4-(trifluoromethoxy)phenyl)acetonitrile], the values for the inhibition at 10 µM in data set [2] and in data set [4] were 17% and 1%, respectively. Moreover, the inhibition at 0.5 µM in data set [3] worked out at 98%.

In the case of `N#CC(=C1CCN(C(=O)N2CCn3nncc3C2)CC1)c1ccc(Cl)cn1` [Compound 163, 2-(5-chloropyridin-2-yl)-2-(1-(4,5,6,7-tetrahydro-[1,2,3]triazolo[1,5-a]pyrazine-5-carbonyl)piperidin-4-ylidene)acetonitrile], the inhibition at 10 µM in data set [2] is 2%; in data set [4], 9%. Moreover, the inhibition at 0.5 µM in data set [3] was determined as 97%.

As for `N#CC(=C1CCN(C(=O)N2CCn3ncnc3C2)CC1)c1ccc(Cl)cc1` [Compound 164, 2-(4-chlorophenyl)-2-(1-(5,6,7,8-tetrahydro-[1,2,4]triazolo[1,5-a]pyrazine-7-carbonyl)piperidin-4-ylidene)acetonitrile], the results for the inhibition at 10 µM in data set [2] and in data set [4] were 12% and 10%, respectively. Besides, the inhibition at 0.5 µM in data set [3] turned out to be 99%.

As for `N#CC(=C1CCN(C(=O)N2CCn3ncnc3C2)CC1)c1ccc(Cl)cn1` [Compound 165, 2-(5-chloropyridin-2-yl)-2-(1-(5,6,7,8-tetrahydro-[1,2,4]triazolo[1,5-a]pyrazine-7-carbonyl)piperidin-4-ylidene)acetonitrile], the inhibition at 10 µM stood at 9% in data set [2] and 6% in data set [4]. The inhibition at 0.5 µM in data set [3] amounted to 95%.

In the case of `N#CC(=C1CCN(C(=O)N2CCn3ncnc3C2)CC1)c1cc(F)cc(F)c1` [Compound 166, 2-(3,5-difluorophenyl)-2-(1-(5,6,7,8-tetrahydro-[1,2,4]triazolo[1,5-a]pyrazine-7-carbonyl)piperidin-4-ylidene)acetonitrile], the inhibition at 10 µM in data set [2] was 13%; in data set [4], 2%. The inhibition at 0.5 µM in data set [3] came to 96%.

`N#CC(=C1CCN(C(=O)N2CCn3ncnc3C2)CC1)c1ccc(OC(F)(F)F)cc1` [Compound 167, 2-(1-(5,6,7,8-tetrahydro-[1,2,4]triazolo[1,5-a]pyrazine-7-carbonyl)piperidin-4-ylidene)-2-(4-(trifluoromethoxy)phenyl)acetonitrile]: the inhibition at 10 µM is 7% in data set [2] and -1% in data set [4]. For the same molecule, in data set [3], the inhibition at 0.5 µM worked out at 97%.

On to `N#CC(=C1CCN(C(=O)N2CCn3ncnc3C2)CC1)c1ccc(Cl)s1` [Compound 168, 2-(5-chlorothiophen-2-yl)-2-(1-(5,6,7,8-tetrahydro-[1,2,4]triazolo[1,5-a]pyrazine-7-carbonyl)piperidin-4-ylidene)acetonitrile], for which the results for the inhibition at 10 µM in data set [2] and in data set [4] were 24% and -2%, respectively. Also, the inhibition at 0.5 µM in data set [3] was determined as 98%.

On to `CN(C(=O)N1CCC(=C(C#N)c2ccc(Cl)cc2)CC1)C1COC1` [Compound 169, 4-((4-chlorophenyl)(cyano)methylene)-N-methyl-N-(oxetan-3-yl)piperidine-1-carboxamide], for which the inhibition at 10 µM was 7% in data set [2] and -2% in data set [4]. The inhibition at 0.5 µM in data set [3] was 95%.

Regarding `CCN(CC)C(=O)N1CCC(=C(C#N)c2ccc(OC(F)(F)F)cc2)CC1` [Compound 170, 4-(cyano(4-(trifluoromethoxy)phenyl)methylene)-N,N-diethylpiperidine-1-carboxamide], the inhibition at 10 µM amounted to 4% in data set [2] and 28% in data set [4]. In addition, the inhibition at 0.5 µM in data set [3] was 98%.

Turning to `CCN(CC)C(=O)N1CCC(=C(C#N)c2ccc(C(F)(F)F)cc2)CC1` [Compound 171, 4-(cyano(4-(trifluoromethyl)phenyl)methylene)-N,N-diethylpiperidine-1-carboxamide], the results for the inhibition at 10 µM in data set [2] and in data set [4] were 3% and 17%, respectively. Also, in data set [3], the inhibition at 0.5 µM turned out to be 99%.

Consider `CCN(CC)C(=O)N1CCC(=C(C#N)c2ccc(F)cn2)CC1` [Compound 172, 4-(cyano(5-fluoropyridin-2-yl)methylene)-N,N-diethylpiperidine-1-carboxamide], for which the inhibition at 10 µM in data set [2] was -2%; in data set [4], 13%. The inhibition at 0.5 µM in data set [3] amounted to 95%.

As for `CCN(CC)C(=O)N1CCC(=C(C#N)c2ccc(Cl)s2)CC1` [Compound 173, 4-((5-chlorothiophen-2-yl)(cyano)methylene)-N,N-diethylpiperidine-1-carboxamide], the inhibition at 10 µM is 29% in data set [2] and 50% in data set [4]. Moreover, in data set [3], the inhibition at 0.5 µM was 99%.

The values are drawn from patent US12637471B2, “Heterocyclic compounds, compositions, methods of preparation and uses thereof” (Organon R&D Finland Ltd, priority 2021, dated 2026).
